This note sets out measurements from US9809589B2, “Crystal form of compound used as mineralocorticoid receptor antagonist and preparation method therefor” (KBP BIOSCIENCES CO., LTD., priority 2012, dated 2017).

The series in a line: Assay 2: stability (influencing factor tests) for Crystal Form II; HPLC content. Format: physicochemical. Here is the method:
Stability for Crystal Form II of the present compound
Crystal Form II of the compound represented by formula (1): Crystal Form II was prepared according to Example 4.
(1) Crystal Form II of the compound represented by formula (1) was laid on a dry and clean watch glass, and kept at 60° C. for 10 days. Sample was taken on Day 10. The contents of the relevant substance and the compound represented by formula (1) in the sample were measured, and compared with the contents of those in the sample taken on Day 0;
(2) Crystal Form II of the compound represented by formula (1) was packaged and sealed with a low-density polyethylene bag for pharmaceutical use in the inner layer and with a polyester/aluminum/polyethylene composite film for pharmaceutical package in the outer layer, and kept at 60° C. for 10 days. Sample was taken on Day 10. The contents of the relevant substance and the compound represented by formula (1) in the sample were measured, and compared with the contents of those in the sample taken on Day 0.
High humidity test: Crystal Form II of the compound represented by formula (1) was laid on a dry and clean watch glass, and kept at 25° C. under a relative humidity of 90%±5% for 10 days. Sample was taken respectively on Day 10. The contents of the relevant substance and the compound represented by formula (1) in the sample were measured, and compared with the contents of those in the sample taken on Day 0.
Photostability test: Crystal Form II of the compound represented by formula (1) was laid on a dry and clean watch glass, and kept at an illuminance of 5000 L×±500 L× in an illumination box for 10 days. Sample was taken on Day 10. The contents of the relevant substance and the compound represented by formula (1) in the sample were measured, and compared with the contents of those in the sample taken on Day 0.
The content of the compound represented by formula (1) was measured by using an external standard method in accordance with the High Performance Liquid Chromatography in Chinese Pharmacopoeia, Appendix V D, Edition 2010.
The content of the relevant substance was measured by using an area normalization method in accordance with the High Performance Liquid Chromatography in Chinese Pharmacopoeia, Appendix V D, Edition 2010.

[1] abbreviates: 60° C.-(1), open watch glass, Day 10.
The mark [2] stands for this setting: 60° C.-(2), packaged and sealed, Day 10.

As to `N#Cc1ccc(N2N=C3c4ccc(C(=O)N5CCC(O)CC5)nc4CC[C@@H]3[C@@H]2C2CCCC2)cc1Cl` [Crystal Form II, 2-chloro-4-[(3S,3aR)-3-cyclopentyl-7-(4-hydroxypiperidin-1-carbonyl)-3,3a,4,5-tetrahydro-2H-pyrazolo[3,4-f]quinolin-2-yl]benzonitrile], the “Stability compared with the amorphous form” value was “superior to the amorphous form in the stability”. Under setting [1], the “Content of the compound represented by formula (1)” value (from here on “Content of the compound represented”) worked out at 96.2% and the “Content of the relevant substance” value came to 2.8%. Under setting [2], the “Content of the compound represented” value was 97.1% and the “Content of the relevant substance” value came to 2.7%. In addition, under “5000 Lx ± 500 Lx, Day 10”, the “Content of the compound represented” value came out at 95.5% and the “Content of the relevant substance” value turned out to be 2.8%. Besides, for the setting “Day 0”, the “Content of the compound represented” value worked out at 96.2% and the “Content of the relevant substance” value was found to be 2.6%. Moreover, for the setting “RH90% ± 5%, 25° C., Day 10”, the “Content of the compound represented” value is reported as 96.9% and the “Content of the relevant substance” value is 2.6%. Under “high temperature, high humidity, illumination”, the “Change of contents of the relevant substance and the compound represented by formula (1)” value is “substantially did not change”.
